Measured values: patent publication US11673888B2, “Bicyclic compounds as ATX inhibitors” (Hoffmann-La Roche Inc., priority 2017, dated 2023)

Biological target: ATX (human His-tagged) (Homo sapiens (Human), UniProt Q13822)
Assay: Human ATX Enzyme Inhibition Assay (fluorescence quenching, MR121 substrate)
Format: biochemical
Settings: 30 nM ATX, 1 μM MR121 substrate, 30° C.
Description: Autotaxin (ATX-ENPP2) cloning: cDNA was prepared from commercial human hematopoietic cells total RNA and used as template in overlapping PCR to generate a full length human ENPP2 ORF with or without a 3′-6×His tag. These full length inserts were cloned into the pcDNA3.1V5-His TOPO (Invitrogen) vector. The DNA sequences of several single clones were verified. The DNA from a correct full length clone was used to transfect Hek293 cells for verification of protein expression. The sequence of the encoded ENPP2 conforms to Swissprot entry Q13822, with or without the additional C-terminal 6×His tag. ATX Fermentation: Recombinant protein was produced by large-scale transient transfection in 20 L controlled stirred tank bioreactors (Sartorius). During cell growth and transfection, temperature, stirrer speed, pH and dissolved oxygen concentration were maintained at 37° C., 120 rpm, 7.1 and 30% DO, respectively. […] Expression was analyzed by Western Blot, enzymatic assay and/or analytical IMAC chromatography. […] Human ATX Enzyme Inhibition Assay ATX inhibition was measured by a fluorescence quenching assay using a specifically labeled substrate analogue (MR121 substrate). […]

O=C(c1cnc(OCC2CCOCC2)c(C2CC2)c1)N1CCc2nc(C(=O)N3CCc4[nH]nnc4C3)sc2C1 [Example 1.03]
IC50: 5 nM
